Results on 1 molecule are retold here after PMC8320619 (Current Research in Toxicology, 2020).

For this assay, the target named is T1, multidrug resistance associated protein 4 (MRP4) (Homo sapiens, UniProt O15439).
T1 sequence (O15439 1-1325): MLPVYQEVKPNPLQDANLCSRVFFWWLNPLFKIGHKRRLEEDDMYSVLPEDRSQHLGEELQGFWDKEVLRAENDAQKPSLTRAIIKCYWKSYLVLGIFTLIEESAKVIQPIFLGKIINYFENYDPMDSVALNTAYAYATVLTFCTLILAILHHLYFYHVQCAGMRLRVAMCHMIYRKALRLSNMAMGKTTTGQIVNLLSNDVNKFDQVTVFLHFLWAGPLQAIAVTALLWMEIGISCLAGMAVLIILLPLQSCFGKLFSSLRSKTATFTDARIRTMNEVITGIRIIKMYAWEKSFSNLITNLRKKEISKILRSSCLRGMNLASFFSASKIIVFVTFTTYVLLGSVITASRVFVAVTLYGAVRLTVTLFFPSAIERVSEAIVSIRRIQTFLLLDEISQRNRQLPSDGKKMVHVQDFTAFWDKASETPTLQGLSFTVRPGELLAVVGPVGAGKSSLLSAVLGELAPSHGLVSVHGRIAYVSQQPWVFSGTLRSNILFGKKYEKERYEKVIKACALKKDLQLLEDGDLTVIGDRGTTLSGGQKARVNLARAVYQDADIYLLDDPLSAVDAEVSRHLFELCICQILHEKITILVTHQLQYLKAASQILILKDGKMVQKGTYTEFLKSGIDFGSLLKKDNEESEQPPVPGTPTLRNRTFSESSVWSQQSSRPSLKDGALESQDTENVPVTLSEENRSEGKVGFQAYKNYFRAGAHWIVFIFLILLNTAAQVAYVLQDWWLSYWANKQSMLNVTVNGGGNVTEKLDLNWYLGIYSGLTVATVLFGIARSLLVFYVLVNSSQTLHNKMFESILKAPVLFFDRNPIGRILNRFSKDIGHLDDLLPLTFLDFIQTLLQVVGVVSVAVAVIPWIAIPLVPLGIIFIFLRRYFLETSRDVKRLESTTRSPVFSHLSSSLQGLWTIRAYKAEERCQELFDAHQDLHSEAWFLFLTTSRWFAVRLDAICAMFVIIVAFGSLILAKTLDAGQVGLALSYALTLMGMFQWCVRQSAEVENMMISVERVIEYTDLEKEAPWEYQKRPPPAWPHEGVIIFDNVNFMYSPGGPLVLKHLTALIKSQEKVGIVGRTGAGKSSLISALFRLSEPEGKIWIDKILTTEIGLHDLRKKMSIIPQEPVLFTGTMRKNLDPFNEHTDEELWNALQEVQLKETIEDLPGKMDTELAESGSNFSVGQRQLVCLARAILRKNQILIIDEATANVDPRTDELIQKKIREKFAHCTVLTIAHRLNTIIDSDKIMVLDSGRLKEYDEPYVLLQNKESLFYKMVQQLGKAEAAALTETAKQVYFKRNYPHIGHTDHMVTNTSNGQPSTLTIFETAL
The class given is biochemical.

One may read the IC50 as the point on the concentration scale where inhibition reaches its midpoint. As to `CC(=O)Nc1ccc(O)c(SC[C@H](N)C(=O)O)c1` [APAP-CYS, acetaminophen cysteine], the IC50 was 125 µM.
